In patent US9072729B2, “Method for treating fibrosis and cancer with imidazolium and imidazolinium compounds” (Agency for Science, Technology and Research, priority 2008, dated 2015):

Key:
IL-6 = assay: Real-time RT-PCR of IL-6 mRNA in HSC T6 cells; assay type: cell-based, rat; details: for inhibition of IL-6 transcription: 48 h
Procedure: FIG. 10. DBZIM and TDBZIM suppressed IL-6 mRNA. HSC T6 cells were incubated with DBZIM (1, 10, 100 and 300 μM) and (b) TDBZIM (1, 10 and 100 μM) for 48 h for the dosage-dependent study, and (c) with DBZIM (100 μM) and TDBZIM (100 μM) for 8, 24 and 48 h for the time-dependent study. The expression level of IL-6 mRNA was quantified with real-time RT-PCR. The data were presented as mean and SEM, N=6, *^bP<0.01, *^cP<0.005, and *^dP<0.0005, when compared to the vehicle control.
Total RNA was isolated using NucleoSpin RNAII isolation kit (Nacherey & Nagel, Germany), and quantified by ND-100 spectrophotometer (Nanodrop Technologies, DE, USA). The details of real-time RT-PCR were reported elsewhere (Zhang et al. 2006). Briefly, it was a two-step real-time RT-PCR using Taqman chemistry. Total RNA was first reverse transcribed to cDNA, and real-time PCR was run and detected in ABI 7500 Fast Real-Time PCR System (Applied Biosystems, CA, USA). Primers and probes for rat GFAP, SMAA, collagen Ia1, fibronectin, TGF-β1, TGF-β receptor I (TGFβ RI) and IL-6 were ordered from Taqman's assay-on-demand database. Rat β-actin was used as normalization gene, and its expression level was constant (CT difference was <±0.5) throughout the experimental settings in this study. Relative quantification of target mRNA was calculated using comparative threshold cycle method (ΔΔCT) as described in User Bulletin #2 (ABI Prism 7700 Sequence Detection System). Relative quantification was given by 2^−ΔΔCT to express the up-regulation or down regulation of the target gene under the treatments compared to the control.

GST = assay: Glutathione S-transferase (GST) assay in treated cells; assay type: cell-based, rat; details: for enhancement of GST activity: 48 h
Procedure: FIG. 4. Effect of DBZIM and TDBZIM on GPx, CAT, SOD and GST. DBZIM affected (a) GPx activity and (c) CAT activity in a dosage-dependent manner. TDBZIM suppressed (b) GPx activity and (d) CAT activity. (e) DBZIM and (f) TDBZIM had little effect on SOD activity. (g) DBZIM induced GST activity. HSC T6 cells were treated with compounds of various concentrations for 48 h, and homogenized by sonication (60% frequency for 30 s) in PBS (pH 7.4, 1 mM of EDTA) for GPx, GST and CAT assays, or in 20 mM of HEPES buffer containing 1 mM of EGTA, 210 mM of mannitol and 70 mM of sucrose (pH 7.2) for SOD assay. Enzyme activity was normalized against total protein. DBZIM was dissolved in DMSO, and TDBZIM was dissolved in H2O. The data were presented as mean and SEM, N=6, *^aP<0.05, *^bP<0.01, *^cP<0.005, and *^dP<0.0005, when compared to the vehicle control.
The activity of phase II anti-oxidant enzyme, GST, was assayed using a kit from Cayman Chemical. Protein samples were harvested in PBS buffer containing 1 mM of EDTA, and the protein concentration was determined by BCA assay. Total GST (cytosolic and microsomal) activity was assayed by measuring the conjugation of 1-chloro-2,4-dinitobenzene (CDNB) with reduced GSH, and monitored by an increase in absorbance at 340 nm. GST activity was expressed as nmol/min/mg protein.

[1] = tested on: caspase 3, caspase 9 and PARP; assay: Western blot of caspase-3, caspase-9 and PARP cleavage in HLE; assay type: cell-based, human; details: 72 h
Procedure: FIG. 38. IMSs, induce cleavage of caspase-3, caspase-9 and PARP. Western blot analysis for the effect of IBN 15, IBM 19, IBN 24, IBM 25, IBN 32 on the cleavage of caspase-3, Caspase-9 and PARP in HLE cells after 72 h exposure to indicated doses of IMSs.
The HLE cells were seeded at a density of 4×10^5 in 10 cm dish. After 24 h incubation, the cells were replaced with fresh 10% DMEM medium and then treated with 60 μM of IBN-15, 90 μM of IBN-19, 90 μM of IBN-24, 30 μM of IBN-25 and 20 μM of IBN 32 and 0.045% DMSO as control for 72 h. Whole cell lysates were prepared on day 3 with lysis buffer [125 mM Tris (pH 7.4), 2% Sodium dodecyl sulfate, 10% glycerol, 6M urea and a protease inhibitor cocktail (Sigma) and 0.02% Bromophenol blue]. The lysates were sonicated for 30 seconds and then heated for 5 mins at boiling temperature. The lysates were centrifuged at 13000 rpm for 10 mins and the protein concentration of each sample was estimated using the BCA protein assay. The lysates was then mixed with 5% 2-mercaptoethanol and stored at −80 C. For Western blotting, samples containing 50 μg of total cell lysate were loaded onto a SDS-PAGE and subjected to electrophoresis. Proteins were transferred to a nitrocellulose membrane and then blocked with 5% non-fat dry milk in Tris buffer saline containing 0.1% Tween 20 for 60 min at 37 C. The membranes were probed with a primary antibody overnight at 4 C in TEST containing 5% Bovine serum albumin. Then the membrane was incubated with horseradish peroxidase (HRP)-conjugated anti-rabbit or anti-mouse secondary antibodies (GE Health care, Chalfont St Giles, UK). Detection was performed with enhanced chemiluminescence (ECL) reagent (Amersham Arlington Heights, Ill.) according to the manufacturer's protocol. Rabbit polyclonal Phospho-p53 (Ser15, 20, 46, 392), anti-caspase-9, anti-caspase-3, anti-PARP antibodies were purchased from Cell Signaling Technology, Inc. (Beverly, Mass., USA). Antibodies against p53 and p21 were purchased from Santa Cruz Biotechnology (Santa Cruz, Calif., USA).

| Molecule | inhibition of IL-6 transcription (IL-6; 1 μM) [%] | inhibition of IL-6 transcription (IL-6; 10 μM) [%] | inhibition of IL-6 transcription (IL-6; 100 μM) [%] | activation and cleavage of caspase 3, caspase 9 and PARP [1] | further results |
| --- | --- | --- | --- | --- | --- |
| 1,3,5-tris(4-methyl-imidazolium)-linked cyclophane.3Br [TDBZIM] | 37 | 55 | 80 |  | inhibition of IL-6 mRNA expression (IL-6; 100 μM, 24 h): 52% |
| (−)-Epigallocatechin gallate [EGCG, reference compound] |  |  |  |  | effect on GST activity (references) (GST; EGCG, NAC): did not have much affect |
| [Br-].c1ccc(Cn2cc[n+](Cc3ccccc3)c2)cc1 [DBZIM, 1,3-bisbenzylimidazolium bromide] | 37 | 46 | 53 |  | enhancement of GST activity (GST; 100 μM): 22%; enhancement of GST activity (GST; 300 μM): 32%; suppression of IL-6 mRNA (IL-6; 100 μM, shorter treatment than 48 h (8, 24 h)): did not show statistically significant suppression; inhibition of IL-6 transcription (IL-6; 300 μM): 59% |
| CC(=O)Oc1ccc(C[n+]2ccn(Cc3ccccc3)c2C)cc1.[Cl-] [IBN-19, 1-benzyl-3-(4-acetate-benzyl)-2-methyl-imidazolium chloride] |  |  |  | induced significant activation and cleavage |  |
| Cc1ccc(C[n+]2ccn(Cc3ccccc3)c2)cc1.[Cl-] [IBN-24, 1-benzyl-3-(4-methylbenzyl)-imidazolium chloride] |  |  |  | induced significant activation and cleavage |  |
